Test results reported in patent US10508104B2, “6-hydroxy-5-(phenyl/heteroarylsulfonyl)pyrimidin-4(1H)-one as APJ agonists” (Bristol-Myers Squibb Company, priority 2016, dated 2019).
pEC50: −log10 of the molar value.

Molecular target: human APJ receptor (Homo sapiens (Human), UniProt P35414)
Assay: Intracellular cAMP accumulation assay (APJ hcAMP, HTRF)
Format: cell-based
Details: human APJ, cAMP accumulation; read-out: Human APJ cAMP EC50 Potency range
How it was run: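 HEK293 cells stably expressing human APJ, 5,000 per well, incubated 30 min at rt with compound, […] and 2 μM forskolin. cAMP measured by HTRF against a cAMP standard curve as inhibition of forskolin-driven production. EC50 from variable-slope sigmoidal fit.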

Chain of human APJ receptor (P35414 whole entry): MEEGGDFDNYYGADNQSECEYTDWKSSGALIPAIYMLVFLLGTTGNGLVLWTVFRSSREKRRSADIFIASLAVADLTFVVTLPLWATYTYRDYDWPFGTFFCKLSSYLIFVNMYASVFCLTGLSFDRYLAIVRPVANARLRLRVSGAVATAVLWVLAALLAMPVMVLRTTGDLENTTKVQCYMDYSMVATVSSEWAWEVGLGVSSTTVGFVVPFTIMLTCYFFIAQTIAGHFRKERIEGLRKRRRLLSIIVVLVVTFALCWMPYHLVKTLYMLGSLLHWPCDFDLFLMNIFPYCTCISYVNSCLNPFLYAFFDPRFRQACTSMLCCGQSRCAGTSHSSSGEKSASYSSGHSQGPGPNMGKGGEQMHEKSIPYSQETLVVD

| SMILES | pEC50 |
| --- | --- |
| CCOCc1nc(=O)c(S(=O)(=O)c2ccc(Br)cc2)c(O)n1[C@@H](COC)c1ccccc1 [Example 296, 5-(4-bromobenzenesulfonyl)-2-(ethoxymethyl)-6-hydroxy-1-[(1R)-2-methoxy-1-phenylethyl]-1,4-dihydropyrimidin-4-one] | 6.52 to 7.00 |
| CCOCc1nc(=O)c(S(=O)(=O)c2ccc(Br)cc2)c(O)n1[C@H]1CCc2ccccc21 [Example 297, 5-(4-bromobenzenesulfonyl)-1-[(1S)-2,3-dihydro-1H-inden-1-yl]-2-(ethoxymethyl)-6-hydroxy-1,4-dihydropyrimidin-4-one] | 7.00 to 8.00 |
| CC(C)OCc1nc(=O)c(S(=O)(=O)c2ccc(Br)cc2)c(O)n1[C@H]1CCc2ccccc21 [Example 299, 5-(4-bromobenzenesulfonyl)-1-[(1S)-2,3-dihydro-1H-inden-1-yl]-6-hydroxy-2-[(propan-2-yloxy)methyl]-1,4-dihydropyrimidin-4-one] | 7.00 to 8.00 |
| CCOCc1nc(=O)c(S(=O)(=O)c2ccc(-c3ccc(F)nc3)cc2)c(O)n1[C@@H](CC)c1ccccc1 [Example 305, 2-(ethoxymethyl)-5-[4-(6-fluoropyridin-3-yl)benzenesulfonyl]-6-hydroxy-1-[(1S)-1-phenylpropyl]-1,4-dihydropyrimidin-4-one] | 8.00 to 11.00 |
| CCOCc1nc(=O)c(S(=O)(=O)c2ccc(-c3ccncc3C)cc2)c(O)n1[C@@H](CC)c1ccccc1 [Example 306, 2-(ethoxymethyl)-6-hydroxy-5-[4-(3-methylpyridin-4-yl)benzenesulfonyl]-1-[(1S)-1-phenylpropyl]-1,4-dihydropyrimidin-4-one] | 8.00 to 11.00 |
| CCOCc1nc(=O)c(S(=O)(=O)c2ccc(-c3ccnc(F)c3C)cc2)c(O)n1[C@@H](CC)c1ccccc1 [Example 307, 2-(ethoxymethyl)-5-[4-(2-fluoro-3-methylpyridin-4-yl)benzenesulfonyl]-6-hydroxy-1-[(1S)-1-phenylpropyl]-1,4-dihydropyrimidin-4-one] | 8.00 to 11.00 |

Next, values leading:

| pEC50 | SMILES |
| --- | --- |
| 8.00 to 11.00 | CCOCc1nc(=O)c(S(=O)(=O)c2ccc(Br)c(F)c2)c(O)n1C(COC)c1cccc(F)c1 (stereo not drawn) [Example 298, 5-(4-bromo-3-fluorobenzenesulfonyl)-2-(ethoxymethyl)-1-[1-(3-fluorophenyl)-2-methoxyethyl]-6-hydroxy-1,4-dihydropyrimidin-4-one] |
| 8.00 to 11.00 | CCOCc1nc(=O)c(S(=O)(=O)c2ccc(Br)c(F)c2)c(O)n1[C@@H](COC)c1ccccc1 [Example 300, 5-(4-bromo-3-fluorobenzenesulfonyl)-2-(ethoxymethyl)-6-hydroxy-1-[(1R)-2-methoxy-1-phenylethyl]-1,4-dihydropyrimidin-4-one] |
| 8.00 to 11.00 | CCOCc1nc(=O)c(S(=O)(=O)c2ccc(Br)c(F)c2)c(O)n1[C@@H](COC)c1cccc(C#N)c1 [Example 301, 3-[(1R)-1-[5-(4-bromo-3-fluorobenzenesulfonyl)-2-(ethoxymethyl)-6-hydroxy-4-oxo-1,4-dihydropyrimidin-1-yl]-2-methoxyethyl] benzonitrile] |
| 8.00 to 11.00 | CCCCc1nc(=O)c(S(=O)(=O)c2ccc(Br)cc2)c(O)n1[C@@H](CC)c1cccc(C#N)c1 [Example 302, 3-[(1S)-1-[5-(4-bromobenzenesulfonyl)-2-butyl-4-hydroxy-6-oxo-1,6-dihydropyrimidin-1-yl]propyl]benzonitrile] |
| 8.00 to 11.00 | CCOCc1nc(=O)c(S(=O)(=O)c2ccc(C3CC3)cc2)c(O)n1[C@H]1CCc2ccccc21 [Example 303, 5-(4-cyclopropylbenzene-sulfonyl)-1-[(1S)-2,3-dihydro-1H-inden-1-yl]-2-(ethoxymethyl)-6-hydroxy-1,4-dihydropyrimidin-4-one] |
| 8.00 to 11.00 | COC[C@@H](c1ccccc1)n1c(COC(C)C)nc(=O)c(S(=O)(=O)c2ccc(-c3ccc(F)nc3C)c(F)c2)c1O [Example 304, 5-[3-fluoro-4-(6-fluoro-2-methylpyridin-3-yl)benzenesulfonyl]-6-hydroxy-1-[(1R)-2-methoxy-1-phenylethyl]-2-[(propan-2-yloxy)methyl]-1,4-dihydropyrimidin-4-one] |
